The values that follow come from patent US4124578A, “Antiovulatory polypeptides” (American Home Products Corporation, priority 1978, dated 1978).

Non-standard residues stand in square brackets, D forms with d. Residues, ends and D or L forms follow the SMILES beside them. pGlu = O=C1CC[C@@H](C(=O)O)N1

The nature of data set [1]: CNS depression noted during the anti-ovulatory test. In kind it is in vivo, rat. The settings on record: at the anti-ovulatory dose (6 mg., subcutaneous in oil), female rats. The method, then: (§1) The rats are sacrificed the next morning (estrus), and the number of animals ovulating and the number of ova identified under a disecting microscope are recorded. The absence of, or a significant decrease in, the number of ova is the criterion for an anti-ovulary effect.

A further data set deals with spontaneous ovulation. The data set is described as follows: Inhibition of spontaneous ovulation in female rats. The class given is in vivo, rat. The settings on record: subcutaneous injections in oil on afternoon of proestrus, adult female rats; for Number of Ovulating Rats: ovulating/total. The method, then: as §1
The subject of data set [2] is luteinizing hormone (LH) release. The settings on record: in vivo, rat; cited from earlier work.
Data set [3] has as its system Follicle stimulating hormone (FSH) release. The settings on record: in vivo, rat; cited from earlier work.

Turning to `CCNC(=O)[C@@H]1CCCN1C(=O)[C@H](CCCNC(=N)N)NC(=O)[C@@H](CC(C)C)NC(=O)C(C)(C)NC(=O)CNC(=O)[C@@H](Cc1c[nH]c2ccccc12)NC(=O)[C@H](CCCNC(=N)N)NC(=O)[C@H](Cc1ccc(O)cc1)NC(=O)[C@@H]1CCC(=O)N1` [Example 3, L-(5-Oxoprolyl)-L-tyrosyl-L-arginyl-D-tryptophylglycyl-(2-methylalanyl)-D-leucyl-L-arginyl-N-ethyl-L-prolinamide] (HELM PEPTIDE1{[Glp].Y.R.[dW].G.[Aib].[dL].R.P.[CCN[*:1]]}$$$$V2.0), the CNS depression entry in data set [1] is “CNS depression is noted at the anti-ovulatory dose”. As to `CCNC(=O)[C@@H]1CCCN1C(=O)[C@H](CCCNC(=N)N)NC(=O)[C@H](CC(C)C)NC(=O)[C@@H](C)NC(=O)CNC(=O)[C@H](Cc1c[nH]c2ccccc12)NC(=O)[C@H](CCCNC(=N)N)NC(=O)[C@H](Cc1ccc(O)cc1)NC(=O)[C@@H]1CCC(=O)N1` [Example 5, L-(5-Oxoprolyl)-L-tyrosyl-L-arginyl-L-tryptophylglycyl-D-alanyl-L-leucyl-L-arginyl-N-ethyl-L-prolinamide] (HELM PEPTIDE1{[Glp].Y.R.W.G.[dA].L.R.P.[CCN[*:1]]}$$$$V2.0), in the data set with spontaneous ovulation (Dose 6 mg.), the “% Inhibition of Ovulation” value is 60% and the “Number of Ovulating Rats” value was 2/5. Take `CC(C)C[C@H](NC(=O)[C@@H](C)NC(=O)CNC(=O)[C@H](Cc1c[nH]c2ccccc12)NC(=O)[C@H](CCCNC(=N)N)NC(=O)[C@H](Cc1ccc(O)cc1)NC(=O)[C@@H]1CCC(=O)N1)C(=O)N[C@@H](CCCNC(=N)N)C(=O)N1CCC[C@H]1C(N)=O` [Example 7, L-(5-Oxoprolyl)-L-tyrosyl-L-arginyl-L-tryptophylglycyl-D-alanyl-L-leucyl-L-arginyl-L-prolyl amide] (HELM PEPTIDE1{[Glp].Y.R.W.G.[dA].L.R.P.[am]}$$$$V2.0): in the data set on spontaneous ovulation (Dose 0.5 mg.), the “% Inhibition of Ovulation” value worked out at 50% and the “Number of Ovulating Rats” value was 3/6.

`CCNC(=O)[C@@H]1CCCN1C(=O)[C@H](Cc1c[nH]c2ccccc12)NC(=O)[C@H](CCCNC(=N)N)NC(=O)[C@H](Cc1ccc(O)cc1)NC(=O)[C@@H]1CCC(=O)N1` [Example 9, L-(5-Oxoprolyl)-L-tyrosyl-L-arginyl-L-tryptophyl-N-ethyl-2-prolin amide] (HELM PEPTIDE1{[Glp].Y.R.W.P.[CCN[*:1]]}$$$$V2.0): in the data set on spontaneous ovulation (Dose 6 mg.), the “% Inhibition of Ovulation” value came out at 50% and the “Number of Ovulating Rats” value is listed as 2/4. As for [pGlu]YRW-NH2, the “release of luteinizing hormone (LH)” value in data set [2] is listed as “release luteinizing hormone (LH)”. Also, the “Follicle stimulating hormone (FSH) release” value in data set [3] is given as “unaffected”. As to [pGlu]YRWGHL-NH2, in data set [2], the “release of luteinizing hormone (LH)” value was “release LH”.
